Data from patent US20130225629A1, “TARGETING PI3K/MTOR SIGNALLING AND NEUTROPHIL RECRUITMENT FOR TREATMENT OF ENTERITIS” (THE UNIVERSITY OF NORTH CAROLINA AT CHAPEL HILL, priority 2012, published 2013).

What was measured:
CMT-93 cells = experiment: C. jejuni epithelial cell translocation assay (transwell); format: cell-based, Murine; conditions: 10 μM AS252424, transwell, up to 5 hrs
Description: Murine rectal carcinoma epithelial CMT-93 cells (1×10^6) were plated onto 12-well Transwells (Corning Inc., Corning, N.Y., United States of America) in DMEM media containing 10% FBS and 2 mM L-glutamine. Upon reached confluency (monolayer), the medium was changed to 1% FBS medium and 10^8 C. jejuni was added to the upper inserts in presence or absence of 10 μM AS252424. Aliquot of medium from bottom wells was collected every hr for 5 hrs, serially diluted and cultured on Remel (Remel, Thermo Scientific, Hampton, N.H., United States of America) plates as described before (Sun et al., 2012). Translocated C. jejuni was reported as CFU/ml at each time point.

C. jejuni [1] = experiment: FISH for C. jejuni in colon; format: in vivo; conditions: AS252424-treated mice
Description: Cy3-tagged 5′[…]3′ (SEQ ID NO: 1; Poppert et al., 2008) was used to probe the presence of C. jejuni. Deparaffinized, formalin-fixed 5 μm thick sections were incubated for 15 minutes in lysozyme (300,000 Units/ml lysozyme; Sigma-Aldrich, St. Louis, Mo., United States of America) buffer (25 mM Tris pH 7.5, 10 mM EDTA, 585 mM sucrose, and 0.3 mg/ml sodium taurocholate) at room temperature and hybridized overnight at 46° C. in hybridization chambers with the oligonucleotide probe (final concentration of 5 ng/μl in a solution of 30 percent formamide, 0.9 M sodium chloride, 20 mM Tris pH 7.5, and 0.01% sodium dodecyl sulfate). Tissue sections were washed for 20 minutes at 48° C. in washing buffer (0.9 M sodium chloride, 20 mM Tris pH 7.5) and once in distilled water for 10 seconds, dried at 46° C., mounted with DAPI mount media, and imaged using a Zeiss (Carl Zeiss, Thornwood, N.Y., United States of America) LSM710 Spectral Confocal Laser Scanning Microscope system with ZEN 2008 software. Acquired images were analyzed using BioimageXD. (Kankaanpaa et al., 2006). […]
Cy3-tagged 5′[…]3′ (SEQ ID NO: 1) was used to probe the presence of C. jejuni in the intestinal tissue sections as previously described (Sun et al., 2012). […] Acquired images were analyzed using BioimageXD (Kankaanpaa et al., 2006).

C. jejuni [2] = experiment: Colonic crypt abscess count in C. jejuni infected mice; format: in vivo; conditions: AS252424-treated II10−/− mice vs vehicle
From the text: All animal protocols were approved by the Institutional Animal Care and Use Committee of the University of North Carolina at Chapel Hill (Chapel Hill, N.C., United States of America). Germ-free 8-12 week-old II10^−/−; NF-κBEGFP (129/SvEv; C57BL/6 mixed background), II10^−/− and II10^−/−; Rag2^−/− mice (129/SvEv) were transferred from germ-free isolators and immediately gavaged with a single dose of 10^9 C. jejuni cfu/mouse (strain 81-176 (Korlath et al., 1985)) and sacrificed after up to 14 days as described previously (Sun et al., 2012). Specific pathogen free (SPF) housed Wt, II10^−/− and Pi3kγ^−/− (Sasaki et al., 2000) mice all on a 129/SvEv background were gavaged 10^9 C. jejuni cfu/mouse one day after 7 day treatment with antibiotics cocktail (streptomycin 2 g/L, gentamycin 0.5 g/L, bacteriocin 1 g/L and ciprofloxacin 0.125 g/L) (Sun et al., 2012). […] Histological images were acquired using a DP71 camera and DP Controller 3.1.1.276 (Olympus, Center Valley, Pa., United States of America), and intestinal inflammation was scored on a scale of 0 to 4 as described before (Lippert et al., 2009; Sun et al., 2012). Neutrophils in colonic tissues were identified based on morphological features using H&E stained sections and counted in 5 fields of view/mouse using a microscope. Data were expressed as average counts/mouse.

Structure (SMILES): O=C1NC(=O)/C(=C/c2ccc(-c3ccc(F)cc3O)o2)S1 [AS252424]
- C. jejuni translocation across CMT-93 monolayer (CMT-93 cells): did not prevent
- C. jejuni in colon (FISH, confocal) (C. jejuni [1]): barely detectable
- reduction of C. jejuni-induced crypt abscesses (C. jejuni [2]): 95%
